# Assay results as given in patent US20160326219A1, “OPTICALLY ACTIVATED RECEPTORS” (IST AUSTRIA (INSTITUTE OF SCIENCE AND TECHNOLOGY AUSTRIA), priority 2013, published 2016).
# Where two headings read alike, the source gives them in different places.
# B1: GA-VfAU1-LOV-P: VfAU1-LOV incorporated into pGAVPO transcription factor (Gal4 DNA binding domain, transactivation domain) (protein)
# chain: MKLLSSIEQACDICRLKKLKCSKEKPKCAKCLKNNWECRYSPKTKRSPLTRAHLTEVESRLERLEPDYSLVKALQMAQQNFVITDASLPDNPIVYASRGFLTLTGYSLDQILGRNCRFLQGPETDPRAVDKIRNAITKGVDTSVCLLNYRQDGTTFWNLFFVAGLRDSKGNIVNYVGVQSKVSEDYAKLLVNEQNIEYKGVRTSNMLRRK
# modifications: left off: large carriers
# B2: AtPH2-LOV2: LOV domain of A. thaliana phototropin 2, residue 363 to 500 of P93025, SEQ ID NO: 4 (protein, listed as Arabidopsis thaliana)
# chain: DSWDLSDRERDIRQGIDLATTLERIEKNFVISDPRLPDNPIIFASDSFLELTEYSREEILGRNCRFLQGPETDQATVQKIRDAIRDQREITVQLINYTKSGKKFWNLFHLQPMRDQKGELQYFIGVQLDGSDHVEPLQ
# B3: AtPH1-LOV2: LOV domain of A. thaliana phototropin 1, residue 449 to 586 of O48963, SEQ ID NO: 2 (protein, listed as Arabidopsis thaliana)
# chain: ESVDDKVRQKEMRKGIDLATTLERIEKNFVITDPRLPDNPIIFASDSFLELTEYSREEILGRNCRFLQGPETDLTTVKKIRNAIDNQTEVTVQLINYTKSGKKFWNIFHLQPMRDQKGEVQYFIGVQLDGSKHVEPVR
# B4: CrPH-LOV1: LOV domain of C. reinhardtii phototropin, residue 16 to 133 of A8IXU7, SEQ ID NO: 6 (protein, listed as Chlamydomonas reinhardtii)
# chain: AGLRHTFVVADATLPDCPLVYASEGFYAMTGYGPDEVLGHNCRFLQGEGTDPKEVQKIRDAIKKGEACSVRLLNYRKDGTPFWNLLTVTPIKTPDGRVSKFVGVQVDVTSKTEGKALA
# How the values were obtained:
# [1] = test system: M38K cells; experiment: All optical evaluation of pharmacological compounds / cell morphology, M38K cells stably expressing Opto-mFGFR1; assay type: cell-based, human; details: for Abrogation of light-induced morphology changes of M38K cells: Opto-mFGFR1 activated by blue light ~3 μW/mm^2, PD 5 μM, BIBF 0.5 μM, PON 1 μM, SEL 0.5 μM, UO 10 μM, MK 10 μM, LY 20 μM, automated image analysis
# From the text: M38K and SPC212, two malignant pleural mesothelioma cell lines, were maintained in RPMI1640 supplemented with 10% FBS. Telomerase-immortalized microvascular hBE cells were maintained in Clonetics EGM2 MV endothelial growth medium (Lonza, Wakersville, Md.) supplemented with 5% FBS. For retrovirus generation, Opto-mFGFR1 or mCherry as control was subcloned into pQCXIP (Clontech, Mountain View, Calif.) using EcoRI and NotI restriction enzymes. Viral particles were generated in HEK293 cells by co-transfection with the helper plasmids pVSV-G and p-gag-pol-gpt. Supernatants were used to transduce M38K, SPC212 or hBE cells grown to 50% confluency in 6-well plates. Cells were selected with 0.8 μg/ml puromycin for 10 d and transgene expression was verified by immunoblotting.
# 10^5 M38K cells were seeded in each well of 6-well plates. After 24 h, cells were stimulated for 1 h or kept in the dark. FGF2 (Sigma) or PD166866 (Pfizer Global Research and Development, New London, Conn.) were added as indicated. After additional 24 h, cells were photographed on the Nikon Ti300 microscope. For quantification of cell morphology, all cell perimeters in randomly selected sections of phase contrast images were traced and aspect ratios (defined as length of major axis divided by length of minor axis of a fitted ellipse) calculated with ImageJ software (National Institute of Health). Greater than 50 individual values contributed to each average.
# For M38K cells, cell morphology was evaluated as described above but followed by automated image analysis. Phase contrast images (typically three images from two wells) were automatically analyzed. Images were converted to greyscale, resized and divided into segments for local threshold correction (threshold was defined as most probably intensity multiplied by a constant factor of 0.85; Igor Pro, Wavemetrics, Lake Oswego, Oreg.). Cells were identified and measured in FIJI/ImageJ (Max Planck Society/National Institutes of Health; size limit: 40 to 600 pixel̂2, circularity limit: 0.01 to 1.00). Occasionally, outliers were removed manually. Typically 200 to 1800 individual values contributed to the averages of FIG. 9. For HEK293 cells, MAPK pathway activation was measured using luciferase as described above.
# [2] = test system: MAPK pathway; experiment: All optical evaluation of pharmacological compounds, luciferase signals of HEK293 cells expressing redOpto-rtrkB; assay type: cell-based, human; details: red light ~0.05 μW/mm^2, UO 10 μM, SEL 0.5 μM, PD 5 μM, IMA 0.5 μM, VEM 0.5 μM
# Description: Phycocyanobilin (PCB; Livchem Logistics GmbH, Frankfurt a.M., Germany) was dissolved in a dark room to a stock concentration of 10 mM in DMSO. Aliquots were stored in the dark at −20° C. Prior to experiments, cells were incubated with 50 μM PCB overnight in reduced serum starve medium at 37° C. PCB could also be applied to applied to living animals as it is non-toxic even in high doses (0.17% of diet or 10 mg/kg) (McCarty (2007).
# Activation of the MAPK pathway was assayed with the PathDetect Elk1 trans-Reporting System (Agilent) consisting of an Elk1 phosphorylation-dependent trans-activator and a luciferase-based trans-reporter. Cells were transfected with 213.3 ng total DNA per well (receptor, trans-activator and trans-reporter at ratio of 1:3:60 or 1:30:600) using Lipofectamine 2000. Six h after transfection medium was replaced with CO2-independent reduced serum starve medium (Gibco/Life Technologies; supplemented with 0.5% FBS, 2 mM L-Glutamine, 100 U/ml penicilin and 0.1 mg/ml streptomycin) for 18 h at 37° C. Cells were transferred and were either kept under constant illumination for 8 h or were protected from light. […] After incubation, plates were washed once with PBS and luciferase was detected with standard, off-the-shelf reagents. These were either Luciferase 1000 Assay System (Promega, Mannheim, Germany) in combination with a microplate reader equipped with an injector (Tecan Infinite 200 Pro, Maennedorf, Switzerland), or ONE-Glo Assay System (Promega) in combination with a microplate reader not equipped with an injector (BioTek Synergy H1). […]
# For M38K cells, cell morphology was evaluated as described above but followed by automated image analysis. Phase contrast images (typically three images from two wells) were automatically analyzed. […] Cells were identified and measured in FIJI/ImageJ (Max Planck Society/National Institutes of Health; size limit: 40 to 600 pixel̂2, circularity limit: 0.01 to 1.00). […] For HEK293 cells, MAPK pathway activation was measured using luciferase as described above.
# [3] = biological target: T1, imFGFR1 (Mus musculus, UniProt P16092); experiment: Chemical stimulation of imFGFR1, MAPK luciferase reporter (HEK293 cells); assay type: cell-based, murine; details: 10 nM, FIG. 2b
# T1 construct: a single or both FKBP domains were deleted to yield constructs miFGFR1 and miFGFR1-ΔFKBP; myristoylation domain (N); expressed in transfected cells; host or cells: HEK293
# Description: Activation of the MAPK pathway was assayed with the PathDetect Elk1 trans-Reporting System (Agilent) consisting of an Elk1 phosphorylation-dependent trans-activator and a luciferase-based trans-reporter. Cells were transfected with 213.3 ng total DNA per well (receptor, trans-activator and trans-reporter at ratio of 1:3:60 or 1:30:600) using Lipofectamine 2000. Six h after transfection medium was replaced with CO2-independent reduced serum starve medium (Gibco/Life Technologies; supplemented with 0.5% FBS, 2 mM L-Glutamine, 100 U/ml penicilin and 0.1 mg/ml streptomycin) for 18 h at 37° C. Cells were transferred and were either kept under constant illumination for 8 h or were protected from light. Chemical stimulation of imFGFR1 followed the same procedure, except that 10 nM AP20187 ((Clackson 1998); ARIAD Pharmaceuticals, Cambridge, Mass.) were added before transfer to the stimulation incubator. After incubation, plates were washed once with PBS and luciferase was detected with standard, off-the-shelf reagents. These were either Luciferase 1000 Assay System (Promega, Mannheim, Germany) in combination with a microplate reader equipped with an injector (Tecan Infinite 200 Pro, Maennedorf, Switzerland), or ONE-Glo Assay System (Promega) in combination with a microplate reader not equipped with an injector (BioTek Synergy H1). These assay systems provide equivalent results.
# [4] = high doses (0.17% of diet or 10 mg/kg), McCarty (2007); cited from earlier work
# [5] = test system: luciferase reporter plasmid; experiment: Light-activated VfAU1-LOV transcription factor, luciferase reporter; assay type: cell-based; details: blue light ~3 μW/mm^2, FIG. 4b
# From the text: The plasmid pGAVPO (Y. Yang, East China University of Science and Technology) contains a Gal4 DNA binding domain, NcVV-LOV and a transactivation domain (Wang et al. 2012) (FIG. 4b). Blue-light activation of pGAVPO was detected with the luciferase reporter plasmid applied in MAPK pathways assays (see above; this plasmid contains multiple UAS sequences). VfAU1-LOV was amplified by PCR and oligonucleotides 24 and 25 (SEQ ID NO: 38 and 39, respectively) and inserted in pGAVPO using BglII and EcoRI restriction enzymes. Constructs was verified by DNA sequencing. Luciferase activation experiments were performed as described above except that mFGFR1 plasmids were replaced with 50 ng pGAVPO per well.
# [6] = biological target: LOV domains; details: cited from earlier work
# [7] = published half lives converted to lifetimes where necessary; cited from earlier work
# [8] = dark state, read-out: Estimated KD, Dark
# [9] = light state, read-out: Estimated KD, Light
# T1 sequence (P16092 with tags, fused parts or gaps): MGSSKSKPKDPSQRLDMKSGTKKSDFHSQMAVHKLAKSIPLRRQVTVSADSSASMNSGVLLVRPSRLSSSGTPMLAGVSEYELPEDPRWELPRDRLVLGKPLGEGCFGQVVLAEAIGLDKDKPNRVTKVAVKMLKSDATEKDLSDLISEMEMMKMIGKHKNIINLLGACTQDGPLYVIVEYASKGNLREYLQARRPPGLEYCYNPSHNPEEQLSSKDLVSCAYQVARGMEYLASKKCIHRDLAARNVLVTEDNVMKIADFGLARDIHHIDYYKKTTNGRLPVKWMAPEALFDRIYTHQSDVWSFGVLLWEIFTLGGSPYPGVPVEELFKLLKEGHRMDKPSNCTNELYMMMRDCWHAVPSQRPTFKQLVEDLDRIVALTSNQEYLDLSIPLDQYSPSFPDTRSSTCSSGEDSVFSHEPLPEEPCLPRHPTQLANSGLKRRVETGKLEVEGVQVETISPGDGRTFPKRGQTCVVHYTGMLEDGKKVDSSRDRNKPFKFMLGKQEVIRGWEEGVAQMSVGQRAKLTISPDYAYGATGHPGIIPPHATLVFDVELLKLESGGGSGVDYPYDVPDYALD
molecule,measurement,setting,value
COc1cc(OC)cc(-c2cc3cnc(N)nc3nc2NC(=O)NC(C)(C)C)c1 [PD166866],Light-induced changes in morphology after pre-treatment,"[1]; M38K cells with Opto-mFGFR1, blue light, FIGS. 6e and f",inhibited
same,Abrogation of light-induced morphology changes of M38K cells,[1],abrogated
same,Abrogation of MAPK pathway induction in response to red light,[2],not effective
N#CC(=C(/N)Sc1ccccc1N)/C(C#N)=C(/N)Sc1ccccc1N [UO126],Abrogation of light-induced morphology changes of M38K cells,[1],abrogated
same,Abrogation of MAPK pathway induction in response to red light,[2],abrogated
CC[C@H](C(=O)N1CCCC[C@H]1C(=O)O[C@H](CCc1ccc(OC)c(OC)c1)c1cccc(OCC(=O)NCC(CNC(=O)COc2cccc([C@@H](CCc3ccc(OC)c(OC)c3)OC(=O)[C@@H]3CCCCN3C(=O)[C@@H](CC)c3cc(OC)c(OC)c(OC)c3)c2)CN(C)C)c1)c1cc(OC)c(OC)c(OC)c1 [AP20187],Activation of imFGFR1 (MAPK pathway),[3],activated
Cc1ccc(NC(=O)c2ccc(CN3CCN(C)CC3)cc2)cc1Nc1nccc(-c2cccnc2)n1 [Imatinib],Abrogation of MAPK pathway induction in response to red light,[2],not effective
NC1(c2ccc(-c3nc4ccn5c(=O)[nH]nc5c4cc3-c3ccccc3)cc2)CCC1 [MK2206],Abrogation of light-induced morphology changes of M38K cells,[1],not effective
FGF2: a prominent FGFR ligand,Cell morphology response,"[1]; M38K cells, blue light (Opto-mFGFR1) or added growth factor",elongated morphology
Phycocyanobilin [PCB],Toxicity in living animals,[4],non-toxic
B1,Light activated transcriptional response (dimerization-dependent transcription factor),[5],light activated transcriptional responses
B2,Kd,[6]; [8],< 25 µM
same,Kd,[6]; [9],< 25 µM
same,Estimated excited state lifetime,[7],~7 s
B3,Kd,[6]; [8],< 25 µM
same,Kd,[6]; [9],< 25 µM
same,Estimated excited state lifetime,[7],~40 s
B4,Kd,[6]; [8],< 55 µM
same,Kd,[6]; [9],< 55 µM
same,Estimated excited state lifetime,[7],~200^1 s
